Laboratory results reported in patent US20100227844A1, “CANNABINOID-1 RECEPTOR MODULATORS USEFUL FOR THE TREATMENT OF ALZHEIMER'S DISEASE” (priority 2007, published 2010).

How the values were obtained:
[1] = target: recombinant human CB1 receptor (Homo sapiens, UniProt P21554); experiment: Cannabinoid Receptor-1 (CB1) Binding (IC50) Assay; conditions: [3H]CP-55940 0.6 nM, CHO cell membranes
[2] = target: recombinant human CB1 receptor expressed in CHO cells (Homo sapiens, UniProt P21554); experiment: Cannabinoid Receptor-1 (CB1) Functional Activity (EC50) Assay; type: cell-based; conditions: forskolin-stimulated intracellular cAMP
mice = conditions: Mazzola et al.; cited from earlier work
rodent models = conditions: naïve as well as scopolamine or Aβ-treated rodent models; Terranova et al.; cited from earlier work
[3] = test system: rodent model of episodic memory; conditions: in combination with Donepezil; Wise et al.; cited from earlier work

Sequence of recombinant human CB1 receptor expressed in CHO cells (P21554 whole entry): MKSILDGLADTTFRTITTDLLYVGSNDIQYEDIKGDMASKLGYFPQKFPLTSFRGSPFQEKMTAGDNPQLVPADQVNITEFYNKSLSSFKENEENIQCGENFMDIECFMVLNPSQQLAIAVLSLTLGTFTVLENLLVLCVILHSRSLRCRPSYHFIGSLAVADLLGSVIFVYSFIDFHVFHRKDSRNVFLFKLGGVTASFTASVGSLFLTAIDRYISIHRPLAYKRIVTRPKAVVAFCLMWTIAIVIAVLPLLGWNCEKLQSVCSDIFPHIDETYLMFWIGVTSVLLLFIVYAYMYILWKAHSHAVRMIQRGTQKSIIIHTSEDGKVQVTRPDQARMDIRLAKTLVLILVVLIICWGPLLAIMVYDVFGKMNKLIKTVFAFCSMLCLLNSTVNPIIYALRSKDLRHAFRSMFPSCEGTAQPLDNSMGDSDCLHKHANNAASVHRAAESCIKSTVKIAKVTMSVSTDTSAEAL
Sequence of recombinant human CB1 receptor (P21554 whole entry): as above

Compound | IC50 [1] [nM] | EC50 [2] [nM] | effect on memory deficit induced by Aβ-administration (mice) | effect on learning and memory performance (rodent models) | effect on cognition scores [3]
CC(NC(=O)C(C)(C)Oc1ccc(Cl)cn1)C(Cc1ccc(Cl)cc1)c1ccsc1 (stereo not drawn) [Example I-59] | 7.28 | 14 |  |  | 
CC(NC(=O)C(C)(C)Oc1ccc(C(F)(F)F)cn1)C(Cc1ccc(Cl)cc1)c1cncc(C#N)c1 (single isomer, unassigned) [Example I-39, N-[3-(4-Chloro-phenyl)-2-(5-cyano-3-pyridyl)-1-methylpropyl]-2-(5-trifluoromethyl-2-pyridyloxy)-2-methylpropanamide] | 3 | 1.5 |  |  | 
CC(NC(=O)C(C)(C)Oc1ccccn1)C(Cc1ccc(Cl)cc1)c1ccccc1 (stereo not drawn) [Example I-6, N-[3-(4-Chloro-phenyl)-1-methyl-2-phenylpropyl]-2-(2-pyridyloxy)-2-methylpropanamide] | 2.3 | 2.1 |  |  | 
Cc1c(C(=O)NN2CCCCC2)nn(-c2ccc(Cl)cc2Cl)c1-c1ccc(Cl)cc1 [SR 141716] |  |  | improves the memory deficit |  | 
CC(NC(=O)C(C)(C)Oc1ccccn1)C(Cc1ccc(Cl)cc1)c1cc(F)cc(F)c1 (single isomer, unassigned) [Example I-25, N-[3-(4-Chloro-phenyl)-2-(3,5-difluorophenyl)-1-methylpropyl]-2-methyl-2-(2-pyridyloxy)-propanamide] | 0.45 | 1.33 |  |  | 
CC(NC(=O)C(C)(C)Oc1cc(C(F)(F)F)ncn1)C(Cc1ccc(Cl)cc1)c1cccc(C#N)c1 (stereo not drawn) [Example I-36, N-[3-(4-Chloro-phenyl)-2-(3-cyanophenyl)-1-methylpropyl]-2-(6-trifluoromethyl-4-pyrimidyloxy)-2-methylpropanamide] | 0.66 | 1.25 |  |  | 
Cc1c(C(=O)NN2CCCCC2)nn(-c2ccc(Cl)cc2Cl)c1-c1ccc(Cl)cc1 [rimonabant] |  |  |  | improves learning and memory performance | additive effects on cognition scores

Continued, in another order:

IC50 [1] [nM] | EC50 [2] [nM] | Compound | effect on memory deficit induced by Aβ-administration (mice) | effect on learning and memory performance (rodent models) | effect on cognition scores [3]
0.33 | 2 | CC(NC(=O)C(C)(C)Oc1ccc(C(F)(F)F)cn1)C(CC1CCCC1)c1cccc(C#N)c1 (single isomer, unassigned) [Example I-62, N-(2-(3-cyano-phenyl)-3-cyclopentyl-1-methylpropyl)-2-methyl-2((5-(trifluoromethyl)-pyridin-2-yl)oxy)-propanamide] |  |  | 
1.39 | 2 | CC(C)CC(c1cccc(C#N)c1)C(C)NC(=O)C(C)(C)Oc1ccc(C(F)(F)F)cn1 (single isomer, unassigned) [Example I-60, N-(2-(3-cyano-phenyl)-1,4-dimethylpentyl)-2-methyl-2((5-(trifluoromethyl)-pyridin-2-yl)oxy)-propanamide] |  |  | 
29.4 | 13 | CC(NC(=O)C(C)(C)Oc1ccc(C(F)(F)F)cn1)C(Cc1ccc(Cl)cc1)c1cc(C#N)c[n+]([O-])c1 (stereo not drawn) [Example I-64] |  |  | 
3 | 2 | CC(C)(F)[C@H](c1cc(F)cc(C#N)c1)C1CN([C@@H](c2ccc(C#N)cc2)c2cccc(C#N)c2)C1 [II] |  |  | 
